Tested on: Staphylococcus aureus ATCC 29213
Assay: MIC, microtitration broth method
Assay type: cell-based
Settings: ATCC29213; SA = Staphylococcus aureus ATCC 29213; 24 h, 37 °C
`C[n+]1cc2c(c3ccccc31)Nc1cc(OCc3ccccc3)ccc1S2` [Compound 6k, 10-benzyloxy-5-methyl-12H-quino[3,4-b][1,4]benzothiazinium chloride] showed an MIC of 19.7 µM.

Tested on: methicillin-resistant S. aureus SA 3202 (MRSA1)
Assay: MIC, microtitration broth method
Assay type: cell-based
Settings: Staphylococcus aureus; MRSA1 = SA 3202; 24 h, 37 °C
`C[n+]1cc2c(c3ccccc31)Nc1cc(OCc3ccccc3)ccc1S2` [Compound 6k, 10-benzyloxy-5-methyl-12H-quino[3,4-b][1,4]benzothiazinium chloride] gave an MIC of 19.7 µM.

Tested on: methicillin-resistant S. aureus SA 630 (MRSA2)
Assay: MIC, microtitration broth method
Assay type: cell-based
Settings: Staphylococcus aureus; MRSA2 = SA 630; 24 h, 37 °C
Compound `C[n+]1cc2c(c3ccccc31)Nc1cc(OCc3ccccc3)ccc1S2` [Compound 6k, 10-benzyloxy-5-methyl-12H-quino[3,4-b][1,4]benzothiazinium chloride] has an MIC of 9.83 µM.

Tested on: methicillin-resistant S. aureus 63718 (MRSA3)
Assay: MIC, microtitration broth method
Assay type: cell-based
Settings: Staphylococcus aureus; MRSA3 = 63718; 24 h, 37 °C
For `C[n+]1cc2c(c3ccccc31)Nc1cc(OCc3ccccc3)ccc1S2` [Compound 6k, 10-benzyloxy-5-methyl-12H-quino[3,4-b][1,4]benzothiazinium chloride], the MIC was 9.83 µM.

Tested on: Enterococcus faecalis ATCC 29212
Assay: MIC, microtitration broth method
Assay type: cell-based
Settings: ATCC29212; EF = Enterococcus faecalis; 24 h, 37 °C
Compound `C[n+]1cc2c(c3ccccc31)Nc1cc(OCc3ccccc3)ccc1S2` [Compound 6k, 10-benzyloxy-5-methyl-12H-quino[3,4-b][1,4]benzothiazinium chloride] has an MIC of 78.6 µM.

Tested on: vancomycin-resistant E. faecalis VRE 342B (VRE1)
Assay: MIC, microtitration broth method
Assay type: cell-based, Enterococcus faecalis
Settings: VRE1 = VRE 342B; 24 h, 37 °C
`C[n+]1cc2c(c3ccccc31)Nc1cc(OCc3ccccc3)ccc1S2` [Compound 6k, 10-benzyloxy-5-methyl-12H-quino[3,4-b][1,4]benzothiazinium chloride] showed an MIC of 78.6 µM.

Tested on: vancomycin-resistant E. faecalis VRE 368 (VRE2)
Assay: MIC, microtitration broth method
Assay type: cell-based, Enterococcus faecalis
Settings: VRE2 = VRE 368; 24 h, 37 °C
`C[n+]1cc2c(c3ccccc31)Nc1cc(OCc3ccccc3)ccc1S2` [Compound 6k, 10-benzyloxy-5-methyl-12H-quino[3,4-b][1,4]benzothiazinium chloride] showed an MIC of 157 µM.

Tested on: vancomycin-resistant E. faecalis VRE 725B (VRE3)
Assay: MIC, microtitration broth method
Assay type: cell-based, Enterococcus faecalis
Settings: VRE3 = VRE 725B; 24 h, 37 °C
`C[n+]1cc2c(c3ccccc31)Nc1cc(OCc3ccccc3)ccc1S2` [Compound 6k, 10-benzyloxy-5-methyl-12H-quino[3,4-b][1,4]benzothiazinium chloride] gave an MIC of 157 µM.

Tested on: M. smegmatis ATCC 700084
Assay: In vitro antimycobacterial MIC, broth dilution micro-method
Assay type: cell-based, Mycobacterium smegmatis
Settings: Mycolicibacterium smegmatis, ATCC700084, 72 h; MS = M. smegmatis ATCC 700084; 3 days, 37 °C
For `C[n+]1cc2c(c3ccccc31)Nc1cc(OCc3ccccc3)ccc1S2` [Compound 6k, 10-benzyloxy-5-methyl-12H-quino[3,4-b][1,4]benzothiazinium chloride], the MIC was 19.7 µM.

Tested on: Mycobacterium marinum CAMP 5644
Assay: as above
Assay type: cell-based
Settings: CAMP5644, 504 h; MM = Mycobacterium marinum CAMP 5644; 21 days, 28 °C
Compound `C[n+]1cc2c(c3ccccc31)Nc1cc(OCc3ccccc3)ccc1S2` [Compound 6k, 10-benzyloxy-5-methyl-12H-quino[3,4-b][1,4]benzothiazinium chloride] has an MIC of 19.7 µM.

Tested on: Staphylococcus aureus ATCC 29213
Assay: MBC, agar aliquot subculture method
Assay type: cell-based
Settings: ATCC29213; SA = Staphylococcus aureus ATCC 29213
For `C[n+]1cc2c(c3ccccc31)Nc1cc(OCc3ccccc3)ccc1S2` [Compound 6k, 10-benzyloxy-5-methyl-12H-quino[3,4-b][1,4]benzothiazinium chloride], the MBC was 19.7 µM.

Tested on: methicillin-resistant S. aureus SA 3202 (MRSA1)
Assay: MBC, agar aliquot subculture method
Assay type: cell-based
Settings: Staphylococcus aureus; MRSA1 = SA 3202
With `C[n+]1cc2c(c3ccccc31)Nc1cc(OCc3ccccc3)ccc1S2` [Compound 6k, 10-benzyloxy-5-methyl-12H-quino[3,4-b][1,4]benzothiazinium chloride] the MBC was 19.7 µM.

Tested on: methicillin-resistant S. aureus SA 630 (MRSA2)
Assay: MBC, agar aliquot subculture method
Assay type: cell-based
Settings: Staphylococcus aureus; MRSA2 = SA 630
`C[n+]1cc2c(c3ccccc31)Nc1cc(OCc3ccccc3)ccc1S2` [Compound 6k, 10-benzyloxy-5-methyl-12H-quino[3,4-b][1,4]benzothiazinium chloride] gave an MBC of 19.7 µM.

Tested on: methicillin-resistant S. aureus 63718 (MRSA3)
Assay: MBC, agar aliquot subculture method
Assay type: cell-based
Settings: Staphylococcus aureus; MRSA3 = 63718
In the case of `C[n+]1cc2c(c3ccccc31)Nc1cc(OCc3ccccc3)ccc1S2` [Compound 6k, 10-benzyloxy-5-methyl-12H-quino[3,4-b][1,4]benzothiazinium chloride], the MBC is reported as 9.83 µM.

Tested on: Enterococcus faecalis ATCC 29212
Assay: MBC, agar aliquot subculture method
Assay type: cell-based
Settings: ATCC29212; EF = Enterococcus faecalis
Work on `C[n+]1cc2c(c3ccccc31)Nc1cc(OCc3ccccc3)ccc1S2` [Compound 6k, 10-benzyloxy-5-methyl-12H-quino[3,4-b][1,4]benzothiazinium chloride] yielded an MBC of 78.6 µM.

Tested on: vancomycin-resistant E. faecalis VRE 342B (VRE1)
Assay: MBC, agar aliquot subculture method
Assay type: cell-based, Enterococcus faecalis
Settings: VRE1 = VRE 342B
With `C[n+]1cc2c(c3ccccc31)Nc1cc(OCc3ccccc3)ccc1S2` [Compound 6k, 10-benzyloxy-5-methyl-12H-quino[3,4-b][1,4]benzothiazinium chloride] the MBC was 78.6 µM.

Tested on: vancomycin-resistant E. faecalis VRE 368 (VRE2)
Assay: MBC, agar aliquot subculture method
Assay type: cell-based, Enterococcus faecalis
Settings: VRE2 = VRE 368
`C[n+]1cc2c(c3ccccc31)Nc1cc(OCc3ccccc3)ccc1S2` [Compound 6k, 10-benzyloxy-5-methyl-12H-quino[3,4-b][1,4]benzothiazinium chloride] gave an MBC of 157 µM.

Tested on: vancomycin-resistant E. faecalis VRE 725B (VRE3)
Assay: MBC, agar aliquot subculture method
Assay type: cell-based, Enterococcus faecalis
Settings: VRE3 = VRE 725B
Compound `C[n+]1cc2c(c3ccccc31)Nc1cc(OCc3ccccc3)ccc1S2` [Compound 6k, 10-benzyloxy-5-methyl-12H-quino[3,4-b][1,4]benzothiazinium chloride] has an MBC of 157 µM.

Tested on: normal human dermal fibroblasts (NHDF)
Assay: In vitro cell viability, WST-1 assay
Assay type: cell-based
Settings: 72 h
Procedure: Compounds were evaluated for their antiproliferative activity using NHDF (normal human dermal fibroblasts, ATCC, Manassas, VA, USA). The cultured cells were kept at 37 °C and 5% CO2. The cells were seeded (1 × 10^4 cells/well/100 μL DMEM supplemented with 10% FCS and streptomycin/penicillin) into 96-well plates (Corning Inc., Corning, NY, USA). Cells were counted using a hemocytometer (Burker chamber) and phase contrast Olympus IX50 microscope equipped with Sony SSC-DC58 AP camera and Olympus DP10 digital camera. The cell viability of the compounds was determined using the Cell Proliferation Reagent WST-1 assay (Roche Molecular Biochemicals, Mannheim, Germany). The examined cells were exposed to the tested compounds (1 mg/mL DMSO stock) for 72 h at various concentrations (0.1–100 μg/mL). The control was included in order to eliminate the DMSO effect at the concentration used. Cell cultures were incubated with WST-1 (10 μL) for 1 h. The absorbance of the samples was measured against a background control at 450 nm using a microplate reader with a reference wavelength at 600 nm. The obtained results are expressed as means of at least two independent experiments performed in triplicate.
Compound `C[n+]1cc2c(c3ccccc31)Nc1cc(OCc3ccccc3)ccc1S2` [Compound 6k, 10-benzyloxy-5-methyl-12H-quino[3,4-b][1,4]benzothiazinium chloride] has an IC50 of over 100 µM.

Tested on: not listed separately
Assay: Lipophilicity by RP-TLC
Assay type: physicochemical
Settings: Tris buffer pH 7.4/acetone, read-out: logPTLC
Procedure: The lipophilicity parameters were determined experimentally using reverse phase thin-layer chromatography (RP-TLC). Chromatograms were prepared on RP-18F254s plates (1.05559.0001, Merck, Germany) precoated with nonpolar silicone oil. Plates were developed in glass chromatography chambers previously saturated with vapor of mobile phase. The mobile phase was composed of 0.2M Tris buffer (pH = 7.4) and acetone in different concentrations, i.e., 50%, 60%, 70%, 80 and 90%. The chromatograms were visualised in UV light (λ = 254 nm). Determination of the RF coefficient was carried out twice for all compounds; in all cases, acetone concentrations used. The final value of RF is the mean of the two measurements. The obtained RF coefficient was used to calculate the value of the RM parameter according to the equation: RM = log [(1/RF) − 1]. By extrapolating RM values to zero acetone concentration, a relative RM0 lipophilicity parameter was obtained, according to the equation: RM = RM0 + bC, where b is slope and C is concentration of acetone in mobile phase. Based on RM0 and the calibration curve, the values of logPTLC for compounds 6a–l were determined. The calibration curve was calculated using the relationship between RM0 of the standard molecules (acetanilide, p-kresol, p-bromoacetophenone, benzophenone, anthracene) and the corresponding logP parameters specified by the extraction method, respectively. RM0 parameters of the standard molecules and quinobenzothiazine derivatives 6a–l were determined in the same empirical conditions.
Work on `C[n+]1cc2c(c3ccccc31)Nc1cc(OCc3ccccc3)ccc1S2` [Compound 6k, 10-benzyloxy-5-methyl-12H-quino[3,4-b][1,4]benzothiazinium chloride] yielded a chromatographic logP of 3.48.

Tested on: S. aureus ATCC 29213 respiratory activity
Assay: MTT assay of bacterial respiration
Assay type: cell-based, Staphylococcus aureus
Settings: S. aureus ATCC 29213, MTT, 24 h
In the case of `C[n+]1cc2c(c3ccccc31)Nc1cc(OCc3ccccc3)ccc1S2` [Compound 6k, 10-benzyloxy-5-methyl-12H-quino[3,4-b][1,4]benzothiazinium chloride], the “Conc.: corresponding multiple of MBC with at least 70% inhibition of respiratory activity” value is reported as 2× MIC (2× MBC) and the “Conc.: lowest multiple of MIC with at least 70% inhibition of respiratory activity” value is reported as 2× MIC (2× MBC).

Same assay, conditions: S. aureus ATCC 29213, at MIC
In the case of `C[n+]1cc2c(c3ccccc31)Nc1cc(OCc3ccccc3)ccc1S2` [Compound 6k, 10-benzyloxy-5-methyl-12H-quino[3,4-b][1,4]benzothiazinium chloride], the “Decrease in viability < 70% at MIC value (MTT)” value is reported as “did not show a decrease in viability < 70%”.

Same assay, conditions: at the concentration given
With `C[n+]1cc2c(c3ccccc31)Nc1cc(OCc3ccccc3)ccc1S2` [Compound 6k, 10-benzyloxy-5-methyl-12H-quino[3,4-b][1,4]benzothiazinium chloride] the “S. aureus Respiration Inhibition” value was 97.6%.

Tested on: S. aureus
Assay: Crystal violet uptake (membrane permeability)
Assay type: cell-based, Staphylococcus aureus
Settings: 4× MIC, 1 h; compared to growth control and 1% Tween 20
Procedure: Phenothiazines are also known for their ability to interact with and damage the cell wall, which has fatal consequences for the microorganism. Therefore, the bacterial suspensions were treated by compounds 6a, 6e, 6g, 6j and 6k (4× MIC) for 1 h. The uptake of crystal violet was expressed as a percentage compared to the original crystal violet solution.
In the case of `C[n+]1cc2c(c3ccccc31)Nc1cc(OCc3ccccc3)ccc1S2` [Compound 6k, 10-benzyloxy-5-methyl-12H-quino[3,4-b][1,4]benzothiazinium chloride], the “Effect on plasma membrane permeability (uptake of crystal violet)” value is reported as “did not affect plasma membrane permeability”.
